# pIC50, pKd, pKi: −log10 of the molar value.
# What was measured:
# EGFR (human) [1] = biological target: EGFR (human) (UniProt P00533)
# PIK3CA (human) [2] = biological target: PIK3CA (human) (UniProt P42336); assay: Inhibition of PIK3CA Kinase Activity
# PIK3CG (human) [3] = biological target: PIK3CG (human) (UniProt P48736); assay: Inhibition of PIK3CG Kinase Activity
# PIK3CD (Human) [4] = biological target: PIK3CD (Human) (UniProt O00329); assay: Inhibition of PIK3CD Kinase Activity
# PIK3CB (Human) [5] = biological target: PIK3CB (Human) (UniProt P42338); assay: Inhibition of PIK3CB Kinase Activity
# PIK3CG;PIK3CA (human) = PIK3CG;PIK3CA (human) (UniProt P48736); assay: Antiproliferation of PC3-MM2 Cells; settings: pc-3
# MAPK14 = MAPK14 (UniProt Q16539); assay: Enzyme Assay
# PIK3CB (Human) [6] = biological target: PIK3CB (Human) (UniProt P42338); assay: Cell-Based Assay; settings: mda-468
# PIK3CD (Human) [7] = biological target: PIK3CD (Human) (UniProt O00329); assay: Enzyme Assay
# PIK3CG (human) [8] = biological target: PIK3CG (human) (UniProt P48736); assay: Enzyme Assay
# EGFR (human) [9] = biological target: EGFR (human) (UniProt P00533); remark: listed apart in the source
# EGFR = EGFR (UniProt P00533)
# EGFR (human) [10] = biological target: EGFR (human) (UniProt P00533); settings: a431
# PIK3CA (human) [11] = biological target: PIK3CA (human) (UniProt P42336); assay: Enzyme Assay
# PIK3CB (Human) [12] = biological target: PIK3CB (Human) (UniProt P42338); assay: Enzyme Assay
# EGFR (human) [13] = biological target: EGFR (human) (UniProt P00533); remark: listed apart in the source
# CDK2 (human) [14] = biological target: CDK2 (human) (UniProt P24941); assay: Enzyme Assay
# CDK2 (human) [15] = biological target: CDK2 (human) (UniProt P24941); assay: Enzyme Assay; remark: listed apart in the source
# PIK3CA (human), sequence (P42336 whole entry, looked up): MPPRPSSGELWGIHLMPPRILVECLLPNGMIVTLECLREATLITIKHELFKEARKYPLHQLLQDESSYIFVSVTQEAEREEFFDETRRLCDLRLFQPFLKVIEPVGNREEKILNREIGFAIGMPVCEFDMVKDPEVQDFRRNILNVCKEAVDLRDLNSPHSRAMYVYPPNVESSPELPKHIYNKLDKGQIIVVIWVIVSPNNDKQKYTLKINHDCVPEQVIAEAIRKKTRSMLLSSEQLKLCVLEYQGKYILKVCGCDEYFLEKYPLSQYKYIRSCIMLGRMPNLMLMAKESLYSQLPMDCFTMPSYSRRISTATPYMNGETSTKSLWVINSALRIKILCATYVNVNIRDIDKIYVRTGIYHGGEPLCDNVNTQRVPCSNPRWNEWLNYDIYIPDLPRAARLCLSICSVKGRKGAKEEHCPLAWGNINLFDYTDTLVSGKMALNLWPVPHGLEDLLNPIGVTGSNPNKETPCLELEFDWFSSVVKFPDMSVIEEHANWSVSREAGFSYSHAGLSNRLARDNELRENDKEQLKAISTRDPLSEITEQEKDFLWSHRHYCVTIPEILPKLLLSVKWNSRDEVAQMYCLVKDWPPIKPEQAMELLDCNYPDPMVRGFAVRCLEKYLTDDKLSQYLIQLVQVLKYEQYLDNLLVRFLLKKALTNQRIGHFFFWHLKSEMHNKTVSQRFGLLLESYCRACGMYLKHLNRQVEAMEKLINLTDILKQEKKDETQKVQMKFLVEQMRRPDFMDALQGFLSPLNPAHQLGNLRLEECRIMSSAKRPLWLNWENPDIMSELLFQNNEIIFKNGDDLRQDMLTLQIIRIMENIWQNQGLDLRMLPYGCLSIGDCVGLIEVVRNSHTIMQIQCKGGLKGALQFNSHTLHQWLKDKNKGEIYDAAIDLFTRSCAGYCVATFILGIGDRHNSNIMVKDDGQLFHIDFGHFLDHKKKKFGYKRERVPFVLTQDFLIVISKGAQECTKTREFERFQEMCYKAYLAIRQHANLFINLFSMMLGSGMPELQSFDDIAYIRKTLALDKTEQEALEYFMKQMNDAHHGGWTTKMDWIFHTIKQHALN
# MAPK14, sequence (Q16539 whole entry, looked up): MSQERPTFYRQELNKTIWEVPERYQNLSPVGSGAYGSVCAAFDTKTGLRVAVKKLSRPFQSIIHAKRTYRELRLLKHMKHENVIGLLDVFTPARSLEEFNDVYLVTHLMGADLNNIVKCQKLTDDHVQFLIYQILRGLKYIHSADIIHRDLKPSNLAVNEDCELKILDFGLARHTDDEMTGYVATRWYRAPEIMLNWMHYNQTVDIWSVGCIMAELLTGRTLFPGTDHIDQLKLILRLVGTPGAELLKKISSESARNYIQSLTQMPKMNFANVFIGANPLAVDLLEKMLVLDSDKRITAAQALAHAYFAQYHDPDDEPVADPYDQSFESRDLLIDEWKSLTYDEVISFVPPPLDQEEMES
# EGFR (human), sequence (P00533 whole entry, looked up): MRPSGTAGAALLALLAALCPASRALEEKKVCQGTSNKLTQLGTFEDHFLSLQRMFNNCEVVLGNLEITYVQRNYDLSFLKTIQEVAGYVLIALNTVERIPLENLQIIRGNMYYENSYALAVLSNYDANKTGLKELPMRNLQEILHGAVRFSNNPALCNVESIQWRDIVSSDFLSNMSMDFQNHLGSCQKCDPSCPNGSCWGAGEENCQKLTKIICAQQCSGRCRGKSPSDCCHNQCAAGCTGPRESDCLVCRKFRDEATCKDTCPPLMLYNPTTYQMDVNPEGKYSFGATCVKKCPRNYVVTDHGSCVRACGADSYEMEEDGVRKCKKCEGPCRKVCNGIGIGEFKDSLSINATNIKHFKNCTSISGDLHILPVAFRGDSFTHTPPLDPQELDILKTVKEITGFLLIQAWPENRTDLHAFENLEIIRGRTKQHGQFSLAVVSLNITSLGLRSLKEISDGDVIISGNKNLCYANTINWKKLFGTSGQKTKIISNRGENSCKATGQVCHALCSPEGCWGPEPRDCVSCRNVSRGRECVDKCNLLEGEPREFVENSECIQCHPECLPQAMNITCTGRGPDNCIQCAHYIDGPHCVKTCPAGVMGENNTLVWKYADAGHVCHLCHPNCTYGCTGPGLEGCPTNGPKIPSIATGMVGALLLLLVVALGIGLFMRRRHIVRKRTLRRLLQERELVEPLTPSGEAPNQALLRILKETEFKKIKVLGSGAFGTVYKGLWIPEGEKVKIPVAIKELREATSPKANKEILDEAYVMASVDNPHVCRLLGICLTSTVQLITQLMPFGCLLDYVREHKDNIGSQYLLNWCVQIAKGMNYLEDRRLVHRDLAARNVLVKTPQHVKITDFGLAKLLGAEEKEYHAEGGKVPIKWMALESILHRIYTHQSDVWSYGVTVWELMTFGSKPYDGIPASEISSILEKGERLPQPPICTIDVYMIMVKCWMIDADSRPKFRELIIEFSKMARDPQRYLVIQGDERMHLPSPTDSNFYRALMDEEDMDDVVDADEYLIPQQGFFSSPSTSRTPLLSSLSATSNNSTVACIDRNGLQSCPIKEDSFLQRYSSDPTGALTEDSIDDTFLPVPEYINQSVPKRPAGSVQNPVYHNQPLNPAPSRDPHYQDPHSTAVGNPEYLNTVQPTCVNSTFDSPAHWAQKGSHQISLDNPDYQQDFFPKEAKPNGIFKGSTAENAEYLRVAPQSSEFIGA
# EGFR, sequence (P00533 whole entry, looked up): as above
# PIK3CD (Human), sequence (O00329 whole entry, looked up): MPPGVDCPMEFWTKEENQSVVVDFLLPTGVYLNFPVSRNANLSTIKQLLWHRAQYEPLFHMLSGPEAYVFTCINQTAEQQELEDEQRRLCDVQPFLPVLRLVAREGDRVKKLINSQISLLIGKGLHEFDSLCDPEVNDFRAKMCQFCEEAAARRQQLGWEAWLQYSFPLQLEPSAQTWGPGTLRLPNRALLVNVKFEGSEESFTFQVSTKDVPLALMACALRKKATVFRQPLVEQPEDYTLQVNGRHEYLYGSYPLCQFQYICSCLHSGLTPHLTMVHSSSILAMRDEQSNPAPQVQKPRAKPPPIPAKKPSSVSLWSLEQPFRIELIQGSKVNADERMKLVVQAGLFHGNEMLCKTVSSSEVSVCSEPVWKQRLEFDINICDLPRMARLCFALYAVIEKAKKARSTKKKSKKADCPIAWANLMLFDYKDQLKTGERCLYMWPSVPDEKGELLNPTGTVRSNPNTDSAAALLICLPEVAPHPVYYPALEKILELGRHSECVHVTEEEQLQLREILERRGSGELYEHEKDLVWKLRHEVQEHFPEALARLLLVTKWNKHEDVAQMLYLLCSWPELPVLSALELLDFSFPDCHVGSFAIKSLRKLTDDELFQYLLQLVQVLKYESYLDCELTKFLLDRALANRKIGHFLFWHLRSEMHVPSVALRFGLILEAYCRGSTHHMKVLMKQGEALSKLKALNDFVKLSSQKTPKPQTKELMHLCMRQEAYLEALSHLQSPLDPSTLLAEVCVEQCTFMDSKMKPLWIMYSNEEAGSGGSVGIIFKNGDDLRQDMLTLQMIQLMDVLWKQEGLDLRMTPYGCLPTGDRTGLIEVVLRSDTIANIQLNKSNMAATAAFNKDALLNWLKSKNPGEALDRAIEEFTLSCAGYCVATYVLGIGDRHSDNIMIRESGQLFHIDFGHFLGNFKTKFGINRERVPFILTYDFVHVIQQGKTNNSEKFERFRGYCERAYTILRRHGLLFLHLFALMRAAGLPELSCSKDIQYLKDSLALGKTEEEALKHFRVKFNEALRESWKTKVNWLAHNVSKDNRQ
smiles,measurement,setting,value
CCNc1nc(-c2cccc(Cl)c2)c(-c2ccnc(Nc3ccc(OCCN(C)C)c(Cl)c3)n2)s1,pIC50,EGFR (human) [1],> 7.00
C=CCN(/C=C1/C(=O)O[C@H](COC)[C@@]2(C)C1=C(O)C(=O)C1=C2[C@H](OC(C)=O)C[C@]2(C)C(O)CC[C@H]12)CC=C (some centres undefined),pIC50,PIK3CA (human) [2],7.85
same,pIC50,PIK3CG (human) [3],6.83
same,pIC50,PIK3CD (Human) [4],6.88
same,pIC50,PIK3CB (Human) [5],7.24
COc1ccc2c(c1)c(/C=C1\Oc3cc(O)cc(O)c3C1=O)c1n2CCN(C)C1,pIC50,PIK3CG;PIK3CA (human),5.79
Cc1ccc(-n2nc(C(C)(C)C)cc2NC(=O)Nc2cc(C)c(OCCN3CCOCC3)c3ccccc23)cc1,pKd,MAPK14,7.85
C[C@H](Nc1ncnc(N)c1C#N)c1nc2ccc(F)cc2nc1-c1ccccn1,pIC50,PIK3CB (Human) [6],< 5.00
COc1ccc2c(c1)c(/C=C1\Oc3cc(O)cc(O)c3C1=O)c1n2CCNC1,pIC50,PIK3CG;PIK3CA (human),5.66
CCNc1nc(-c2cccc(OC)c2)c(-c2ccnc(Nc3ccc(OC4CCN(CCS(C)(=O)=O)CC4)c(F)c3)n2)s1,pIC50,EGFR (human) [1],6.00 to 7.00
Cc1nc2cnc3ccc(C#Cc4cccnc4)cc3c2n1-c1ccc(C(C)(C)C#N)cc1,pIC50,PIK3CD (Human) [7],7.47
same,pIC50,PIK3CG (human) [8],6.95
same,pIC50,PIK3CA (human) [2],7.25
same,pIC50,PIK3CG (human) [3],6.93
same,pIC50,PIK3CD (Human) [4],7.46
same,pIC50,PIK3CB (Human) [5],6.35
Brc1ccc(Nc2ncnc3sc4c(c23)CCCC4)cc1,pIC50,EGFR (human) [9],7.30
CC(C)S(=O)(=O)n1c(N)nc2ccc(-c3[nH]c(-c4c(F)cccc4F)nc3-c3ccccc3)cc21,pKi,MAPK14,8.30
CCNc1nc(-c2cccc(OC)c2)c(-c2ccnc(Nc3ccc(OCCN(C)C)c(C)c3)n2)s1,pIC50,EGFR (human) [1],> 7.00
C#Cc1cccc(Nc2ncnc3cccc(CN4CC[C@@H](N)[C@H](O)C4)c23)c1,pIC50,EGFR,5.30 to 9.00
COCCNc1nc(-c2cccc(OC)c2)c(-c2ccnc(Nc3ccc(N4CCOCC4)c(Cl)c3)n2)s1,pIC50,EGFR (human) [1],> 7.00
C#Cc1cccc(Nc2ncnc3cccc(CN4CC[C@@H](N)[C@H](CO)C4)c23)c1,pIC50,EGFR,5.30 to 9.00
C=CC(=O)N1CC[C@H]1C(=O)Nc1ccc2ncnc(Nc3ccc(OCc4ccccn4)c(Cl)c3)c2c1,pIC50,EGFR (human) [10],6.66
Oc1cccc(Nc2ncnc3sc4c(c23)CCCC4)c1,pIC50,EGFR (human) [9],8.10
C=CC(=O)N1CCC[C@H]1C(=O)Nc1ccc2ncnc(Nc3ccc(OCc4ccccn4)c(Cl)c3)c2c1,pIC50,EGFR (human) [10],7.49
O=c1cc(NCc2ccccc2)nc(N2CCOCC2)[nH]1,pIC50,PIK3CA (human) [11],3.85
same,pIC50,PIK3CB (Human) [12],4.47
C=CCN(/C=C1/C(=O)O[C@H](COC)[C@@]2(C)C1=C(O)C(=O)C1=C2[C@H](OC(C)=O)C[C@]2(C)C(=O)CC[C@H]12)CC=C,pIC50,PIK3CA (human) [2],7.41
same,pIC50,PIK3CG (human) [3],6.70
same,pIC50,PIK3CD (Human) [4],6.91
same,pIC50,PIK3CB (Human) [5],7.06
COc1cc(-c2nc(N3CCCC3)sc2-c2ccnc(Nc3ccc(OCCN4CCCC4)c(F)c3)n2)ccc1Cl,pIC50,EGFR (human) [1],6.00 to 7.00
O=[N+]([O-])c1cccc(Nc2ncnc3sc4c(c23)CCCC4)c1,pIC50,EGFR (human) [9],8.59
COc1cccc(Nc2ncnc3cccc(CN4CC[C@@H](N)[C@H](O)C4)c23)c1,pIC50,EGFR,5.30 to 9.00
FC(F)(F)c1cccc(Nc2ncnc3sc4c(c23)CCCC4)c1,pIC50,EGFR (human) [9],7.45
O=C(Nc1ccc(CNC[C@@H]2CCCO2)cc1)c1sc2ncnc3c2c1NC(=O)N3c1ccc(F)c(Cl)c1,pIC50,EGFR (human) [13],7.36
CC(C)n1cnc2c(NCc3cccnc3)nc(NCC(O)(C(F)(F)F)C(F)(F)F)nc21,pIC50,CDK2 (human) [14],6.02
C=CC(=O)N1CCC[C@@H]1C(=O)Nc1ccc2ncnc(Nc3ccc(OCc4ccccn4)c(Cl)c3)c2c1,pIC50,EGFR (human) [10],6.25
CCNc1nc(-c2cccc(O)c2)c(-c2ccnc(Nc3ccc(OCCN4CCCC4)c(Cl)c3)n2)s1,pIC50,EGFR (human) [1],> 7.00
Nc1ccccc1Nc1ccc2c(c1)OCc1ccccc1C2=O,pIC50,MAPK14,6.52
C=CC(=O)N1CCC(C(=O)Nc2ccc3ncnc(Nc4ccc(OCc5ccccn5)c(Cl)c4)c3c2)CC1,pIC50,EGFR (human) [10],6.29
CC[C@H](Nc1nc(NCc2cccnc2)c2ncn(C(C)C)c2n1)C(C)(C)O,pIC50,CDK2 (human) [15],7.15
same,pIC50,CDK2 (human) [14],6.70
C[C@H](Nc1ncnc(N)c1C#N)c1cc2ccc(F)cc2nc1-c1cccc(F)c1,pIC50,PIK3CB (Human) [6],5.42
C[C@H](Nc1ncnc(N)c1C#N)c1cc2ccc(F)cc2nc1-c1ccccn1,pIC50,PIK3CB (Human) [6],5.71
CCN1CCN(c2cccc3c2CCN3C(=O)Cc2nc(N3CCOCC3)cc(=O)[nH]2)CC1,pIC50,PIK3CA (human) [11],6.18
same,pIC50,PIK3CB (Human) [12],6.48
same,pIC50,PIK3CD (Human) [7],8.70
same,pIC50,PIK3CG (human) [8],5.00
O=C(c1nn([C@@H]2CCCN(CCN3CCOCC3)C2)c2c1CS(=O)(=O)c1c(F)cccc1-2)N1CCOCC1,pIC50,PIK3CA (human) [11],5.12
same,pIC50,PIK3CB (Human) [12],5.61
same,pIC50,PIK3CD (Human) [7],7.82
Fc1ccc(-c2ncn(CCCN3CCOCC3)c2-c2ccccn2)cc1,pIC50,MAPK14,4.19
Oc1ccc(Nc2ncnc3sc4c(c23)CCCC4)cc1,pIC50,EGFR (human) [9],7.56

# Reference: the Kinase Knowledgebase extract (Sharma et al. 2016)
